According to paper PMC10178848, “Modulating fast skeletal muscle contraction protects skeletal muscle in animal models of Duchenne muscular dystrophy” (The Journal of Clinical Investigation, 2023):
Where two headings read alike, the source gives them in different places.

Tested on: GRMD plasma proteins
Format: in vivo, dog
[1] = Post-Treatment to GRMD baseline, Decreased in GRMD

O=c1ccc(-c2cnc(OCC(F)(F)F)nc2)nn1Cc1cncc(F)c1 [EDG-5506]
Change from GRMD Baseline (fraction) (Human Chorionic Gonadotropin (CGA CGB), Post-Treatment to GRMD baseline): 2.5964 fraction
Change from GRMD Baseline (fraction) (Insulin (INS), EDG-5506 treatment to GRMD baseline): 0.2426 fraction
Change from GRMD Baseline (fraction) (Insulin (INS), Post-Treatment to GRMD baseline): 0.0736 fraction
Change from GRMD Baseline (fraction) (Interferon lambda-2 (IFNL2), EDG-5506 treatment to GRMD baseline): 0.1683 fraction
Change from GRMD Baseline (fraction) (Interferon lambda-2 (IFNL2), Post-Treatment to GRMD baseline): 0.4121 fraction
Change from GRMD Baseline (fraction) (Interleukin-12 (IL12A IL12B), EDG-5506 treatment to GRMD baseline): 0.1563 fraction
Change from GRMD Baseline (fraction) (Interleukin-12 (IL12A IL12B), Post-Treatment to GRMD baseline): 0.0477 fraction
Change from GRMD Baseline (fraction) (Leucine-rich repeat transmembrane protein FLRT2 (FLRT2), EDG-5506 treatment to GRMD baseline): 0.1078 fraction
Change from GRMD Baseline (fraction) (Leucine-rich repeat transmembrane protein FLRT2 (FLRT2), Post-Treatment to GRMD baseline): -0.1244 fraction
Change from GRMD Baseline (fraction) (Megakaryocyte-associated tyrosine-protein kinase (MATK), EDG-5506 treatment to GRMD baseline): 0.083 fraction
Change from GRMD Baseline (fraction) (Megakaryocyte-associated tyrosine-protein kinase (MATK), Post-Treatment to GRMD baseline): 0.0043 fraction
Change from GRMD Baseline (fraction) (Mitogen-activated protein kinase 9 (MAPK9), EDG-5506 treatment to GRMD baseline): 0.1873 fraction
Change from GRMD Baseline (fraction) (Mitogen-activated protein kinase 9 (MAPK9), Post-Treatment to GRMD baseline): -0.0197 fraction
Change from GRMD Baseline (fraction) (Myc proto-oncogene protein (MYC), EDG-5506 treatment to GRMD baseline): 0.0043 fraction
Change from GRMD Baseline (fraction) (Myc proto-oncogene protein (MYC), Post-Treatment to GRMD baseline): 0.0245 fraction
Change from GRMD Baseline (fraction) (Nascent polypeptide-associated complex subunit alpha (NACA), EDG-5506 treatment to GRMD baseline): -0.0939 fraction
Change from GRMD Baseline (fraction) (Nascent polypeptide-associated complex subunit alpha (NACA), Post-Treatment to GRMD baseline): -0.019 fraction
Change from GRMD Baseline (fraction) (Neurexin-1-beta (NRXN1), EDG-5506 treatment to GRMD baseline): 0.163 fraction
Change from GRMD Baseline (fraction) (Neurexin-1-beta (NRXN1), Post-Treatment to GRMD baseline): 0.0798 fraction
Change from GRMD Baseline (fraction) (Neuropilin-1 (NRP1), EDG-5506 treatment to GRMD baseline): -0.1066 fraction
Change from GRMD Baseline (fraction) (Neuropilin-1 (NRP1), Post-Treatment to GRMD baseline): -0.2144 fraction
Change from GRMD Baseline (fraction) (Neutrophil elastase (ELANE), EDG-5506 treatment to GRMD baseline): 0.113 fraction
Change from GRMD Baseline (fraction) (Neutrophil elastase (ELANE), Post-Treatment to GRMD baseline): 0.0205 fraction
Change from GRMD Baseline (fraction) (Neutrophil-activating peptide 2 (PPBP), EDG-5506 treatment to GRMD baseline): -0.0999 fraction
Change from GRMD Baseline (fraction) (Neutrophil-activating peptide 2 (PPBP), Post-Treatment to GRMD baseline): 0.0464 fraction
Change from GRMD Baseline (fraction) (Osteocalcin (BGLAP), EDG-5506 treatment to GRMD baseline): 0.2208 fraction
Change from GRMD Baseline (fraction) (Osteocalcin (BGLAP), Post-Treatment to GRMD baseline): -0.0043 fraction
Change from GRMD Baseline (fraction) (PILR alpha-associated neural protein (PIANP), EDG-5506 treatment to GRMD baseline): 0.0458 fraction
Change from GRMD Baseline (fraction) (PILR alpha-associated neural protein (PIANP), Post-Treatment to GRMD baseline): -0.0155 fraction
Change from GRMD Baseline (fraction) (Periostin (POSTN), EDG-5506 treatment to GRMD baseline): 0.1077 fraction
Change from GRMD Baseline (fraction) (Periostin (POSTN), Post-Treatment to GRMD baseline): -0.1102 fraction
Change from GRMD Baseline (fraction) (Pleiotrophin (PTN), EDG-5506 treatment to GRMD baseline): 0.0122 fraction
Change from GRMD Baseline (fraction) (Pleiotrophin (PTN), Post-Treatment to GRMD baseline): -0.0998 fraction
3-hydroxyisobutyrate dehydrogenase, mitochondrial (HIBADH): Change from GRMD Baseline (fraction) [1]: 0.0399 fraction
14-3-3 protein beta/alpha (YWHAB): Change from GRMD Baseline (fraction) [1]: -0.1281 fraction
14-3-3 protein sigma (SFN): Change from GRMD Baseline (fraction) [1]: -0.1134 fraction
72 kDa type IV collagenase (MMP2): Change from GRMD Baseline (fraction) [1]: -0.3542 fraction
Adrenomedullin (ADM): Change from GRMD Baseline (fraction) [1]: -0.0931 fraction
Aggrecan core protein (ACAN): Change from GRMD Baseline (fraction) [1]: -0.1233 fraction
Alpha-synuclein (SNCA): Change from GRMD Baseline (fraction) [1]: -0.0439 fraction
Apolipoprotein B (APOB): Change from GRMD Baseline (fraction) [1]: -0.0228 fraction
Appetite-regulating hormone (GHRL): Change from GRMD Baseline (fraction) [1]: 0.0233 fraction
Atrial natriuretic factor (NPPA): Change from GRMD Baseline (fraction) [1]: 0.0027 fraction
BDNF/NT-3 growth factors receptor (NTRK2): Change from GRMD Baseline (fraction) [1]: -0.0065 fraction
BH3-interacting domain death agonist (BID): Change from GRMD Baseline (fraction) [1]: 0.0184 fraction
Bcl-2-related protein A1 (BCL2A1): Change from GRMD Baseline (fraction) [1]: 0.0661 fraction
Bone morphogenetic protein 6 (BMP6): Change from GRMD Baseline (fraction) [1]: -0.0925 fraction
Bone morphogenetic protein 10 (BMP10): Change from GRMD Baseline (fraction) [1]: -0.0513 fraction
C-X-C motif chemokine 10 (CXCL10): Change from GRMD Baseline (fraction) [1]: 0.0358 fraction
C-type mannose receptor 2 (MRC2): Change from GRMD Baseline (fraction) [1]: -0.1031 fraction
CD166 antigen (ALCAM): Change from GRMD Baseline (fraction) [1]: 0.0066 fraction
Cadherin-5 (CDH5): Change from GRMD Baseline (fraction) [1]: -0.1425 fraction
Carboxypeptidase E (CPE): Change from GRMD Baseline (fraction) [1]: 0.0109 fraction
Cell adhesion molecule 1 (CADM1): Change from GRMD Baseline (fraction) [1]: -0.1579 fraction
Chromogranin-A (CHGA): Change from GRMD Baseline (fraction) [1]: 0.0248 fraction
Ciliary neurotrophic factor receptor subunit alpha (CNTFR): Change from GRMD Baseline (fraction) [1]: -0.0624 fraction
Ck-beta-8-1 (CCL23): Change from GRMD Baseline (fraction) [1]: 0.0454 fraction
Coiled-coil domain-containing protein 80 (CCDC80): Change from GRMD Baseline (fraction) [1]: 0.0372 fraction
Collagen alpha-1(VIII) chain (COL8A1): Change from GRMD Baseline (fraction) [1]: 0.1221 fraction
Collagenase 3 (MMP13): Change from GRMD Baseline (fraction) [1]: -0.3148 fraction
Collectin-12 (COLEC12): Change from GRMD Baseline (fraction) [1]: -0.0046 fraction
Complement component C1q receptor (CD93): Change from GRMD Baseline (fraction) [1]: -0.1418 fraction
Complement decay-accelerating factor (CD55): Change from GRMD Baseline (fraction) [1]: 0.0605 fraction
Contactin-1 (CNTN1): Change from GRMD Baseline (fraction) [1]: -0.0113 fraction
Corticotropin (POMC): Change from GRMD Baseline (fraction) [1]: 0.0912 fraction
Cytotoxic and regulatory T-cell molecule (CRTAM): Change from GRMD Baseline (fraction) [1]: 0.2824 fraction
Dickkopf-related protein 1 (DKK1): Change from GRMD Baseline (fraction) [1]: -0.0925 fraction
Dickkopf-related protein 4 (DKK4): Change from GRMD Baseline (fraction) [1]: -0.1272 fraction
E3 ubiquitin-protein ligase ZNRF3 (ZNRF3): Change from GRMD Baseline (fraction) [1]: 0.0469 fraction
Ephrin type-A receptor 5 (EPHA5): Change from GRMD Baseline (fraction) [1]: -0.1823 fraction
Ephrin-A2 (EFNA2): Change from GRMD Baseline (fraction) [1]: -0.0773 fraction
Ephrin-A5 (EFNA5): Change from GRMD Baseline (fraction) [1]: -0.1613 fraction
Epidermal growth factor receptor (EGFR): Change from GRMD Baseline (fraction) [1]: -0.0135 fraction
Estradiol 17-beta-dehydrogenase 1 (HSD17B1): Change from GRMD Baseline (fraction) [1]: 0.0729 fraction
Fatty acid-binding protein, epidermal (FABP5): Change from GRMD Baseline (fraction) [1]: 0.3761 fraction
Fc receptor-like protein 3 (FCRL3): Change from GRMD Baseline (fraction) [1]: -0.0287 fraction
GDNF family receptor alpha-2 (GFRA2): Change from GRMD Baseline (fraction) [1]: -0.0362 fraction
Galectin-8 (LGALS8): Change from GRMD Baseline (fraction) [1]: 0.1492 fraction
Galectin-9 (LGALS9): Change from GRMD Baseline (fraction) [1]: -0.0107 fraction
Gamma-enolase (ENO2): Change from GRMD Baseline (fraction) [1]: -0.0983 fraction
Gastrin-releasing peptide (GRP): Change from GRMD Baseline (fraction) [1]: 0.0411 fraction
Glutamate carboxypeptidase 2 (FOLH1): Change from GRMD Baseline (fraction) [1]: 0.145 fraction
Glypican-2 (GPC2): Change from GRMD Baseline (fraction) [1]: 0.075 fraction
Gremlin-1 (GREM1): Change from GRMD Baseline (fraction) [1]: 0.1318 fraction
Growth/differentiation factor 8 (MSTN): Change from GRMD Baseline (fraction) [1]: 0.065 fraction
Growth/differentiation factor 11/8 (GDF11 MSTN): Change from GRMD Baseline (fraction) [1]: -0.0539 fraction
Hemoglobin (HBA1 HBB): Change from GRMD Baseline (fraction) [1]: -0.0209 fraction
Heparin cofactor 2 (SERPIND1): Change from GRMD Baseline (fraction) [1]: 0.014 fraction
Hepatitis A virus cellular receptor 2 (HAVCR2): Change from GRMD Baseline (fraction) [1]: 0.0719 fraction
High affinity immunoglobulin gamma Fc receptor I (FCGR1A): Change from GRMD Baseline (fraction) [1]: 0.0477 fraction
Histone-lysine N-methyltransferase EHMT2 (EHMT2): Change from GRMD Baseline (fraction) [1]: -0.0469 fraction
Hyaluronan and proteoglycan link protein 1 (HAPLN1): Change from GRMD Baseline (fraction) [1]: -0.1275 fraction
Insulin-like growth factor 1 receptor (IGF1R): Change from GRMD Baseline (fraction) [1]: -0.1027 fraction
Integrin alpha-V: beta-5 complex (ITGAV ITGB5): Change from GRMD Baseline (fraction) [1]: 0.0267 fraction
Interleukin-4 receptor subunit alpha (IL4R): Change from GRMD Baseline (fraction) [1]: 0.0286 fraction
Interleukin-18-binding protein (IL18BP): Change from GRMD Baseline (fraction) [1]: -0.0841 fraction
Interstitial collagenase (MMP1): Change from GRMD Baseline (fraction) [1]: 0.1983 fraction
Leucine-rich repeat transmembrane neuronal protein 3 (LRRTM3): Change from GRMD Baseline (fraction) [1]: 0.0593 fraction
Limbic system-associated membrane protein (LSAMP): Change from GRMD Baseline (fraction) [1]: -0.0633 fraction
Lymphocyte activation gene 3 protein (LAG3): Change from GRMD Baseline (fraction) [1]: 0.8111 fraction
Lysosome membrane protein 2 (SCARB2): Change from GRMD Baseline (fraction) [1]: 0.1572 fraction
MHC class I polypeptide-related sequence B (MICB): Change from GRMD Baseline (fraction) [1]: 0.6204 fraction
Matrilin-2 (MATN2): Change from GRMD Baseline (fraction) [1]: -0.1616 fraction
Melanoma-derived growth regulatory protein (MIA): Change from GRMD Baseline (fraction) [1]: -0.1058 fraction
Moesin (MSN): Change from GRMD Baseline (fraction) [1]: 0.1568 fraction
Muellerian-inhibiting factor (AMH): Change from GRMD Baseline (fraction) [1]: 0.0468 fraction
NKG2D ligand 1 (ULBP1): Change from GRMD Baseline (fraction) [1]: -0.0033 fraction
NT-3 growth factor receptor (NTRK3): Change from GRMD Baseline (fraction) [1]: -0.1478 fraction
Netrin receptor UNC5C (UNC5C): Change from GRMD Baseline (fraction) [1]: -0.0587 fraction
Neurogenic locus notch homolog protein 2 (NOTCH2): Change from GRMD Baseline (fraction) [1]: 0.0095 fraction
Neurogenic locus notch homolog protein 3 (NOTCH3): Change from GRMD Baseline (fraction) [1]: -0.0751 fraction
Nuclear receptor subfamily 1 group D member 1 (NR1D1): Change from GRMD Baseline (fraction) [1]: 0.0266 fraction
Phospholipase A2 (PLA2G1B): Change from GRMD Baseline (fraction) [1]: -0.0833 fraction
Placenta growth factor (PGF): Change from GRMD Baseline (fraction) [1]: -0.1111 fraction
Plasminogen (PLG): Change from GRMD Baseline (fraction) [1]: 0.0803 fraction
PolyUbiquitin K63-linked (UBC): Change from GRMD Baseline (fraction) [1]: 0.2532 fraction
Proteasome activator complex subunit 3 (PSME3): Change from GRMD Baseline (fraction) [1]: 0.0489 fraction
Protein S100-A4 (S100A4): Change from GRMD Baseline (fraction) [1]: -0.1235 fraction
Protein amnionless (AMN): Change from GRMD Baseline (fraction) [1]: 0.002 fraction
